We go through 29 molecules from patent US20100029619A1, “FUSED HETEROCYCLIC COMPOUND” (TAKEDA PHARMACEUTICAL COMPANY LIMTED, priority 2006, published 2010).

In general, melting point refers to the temperature, or range, at which the solid turns liquid. `CC(C)(C)c1ccc(C(=O)Nc2cn3cc(-c4ccoc4)ccc3n2)cc1` [Example 61, 4-tert-butyl-N-[6-(3-furyl)imidazo[1,2-a]pyridin-2-yl]benzamide] came in with a melting point of 258 to 259 °C.
The value for `CC(C)(C)c1ccc(C(=O)Nc2cn3cc(-c4ccc[nH]4)ccc3n2)cc1` [Example 62] was 279 to 280 °C.
The value for `CC(C)(C)c1ccc(C(=O)Nc2cn3cc(-n4cccc4)ccc3n2)cc1` [Example 64, 4-tert-butyl-N-[6-(1H-pyrrol-1-yl)-imidazo[1,2-a]pyridin-2-yl]benzamide] was 274 to 275 °C; that for `Cc1cccc2nc(NC(=O)c3ccc(C(C)(C)C)cc3)cn12` [Example 65, 4-tert-Butyl-N-(5-methylimidazo[1,2-a]pyridin-2-yl)benzamide] was 204 to 205 °C.
Regarding `CC(O)c1ccc2nc(NC(=O)c3ccc(C(C)(C)C)cc3)cn2c1` (centres unmarked) [Example 71, 4-tert-butyl-N-[6-(1-hydroxyethyl)imidazo[1,2-a]pyridin-2-yl]benzamide], the melting point lay in the range of 249 to 250 °C.
Molecule `CC(C)(C)c1ccc(C(=O)Nc2cn3cc(-c4ncc[nH]4)ccc3n2)cc1` [Example 73, 4-tert-butyl-N-[6-(1H-imidazol-2-yl)imidazo[1,2-a]pyridin-2-yl]benzamide] registered a melting point of 300 to 301 °C.
As for `CC(C)(C)c1ccc(C(=O)Nc2cn3cc(-c4cnco4)ccc3n2)cc1` [Example 74, 4-tert-butyl-N-[6-(1,3-oxazol-5-yl)imidazo[1,2-a]pyridazin-2-yl]benzamide], the figure is 265 to 266 °C.
As for `CC(C)(C)c1ccc(C(=O)Nc2cn3cc(-c4cnc[nH]4)ccc3n2)cc1` [Example 76, 4-tert-butyl-N-[6-(1H-imidazol-5-yl)imidazo[1,2-a]pyridin-2-yl]benzamide], the figure is 297 to 298 °C; as for `CC(C)(C)c1ccc(C(=O)Nc2cn3cc(C#N)ccc3n2)cc1` [Example 78, 4-tert-butyl-N-[6-cyanoimidazo[1,2-a]pyridin-2-yl]benzamide], 300 to 301 °C.
As for `CN(C)Cc1ccc2nc(NC(=O)c3ccc(C(C)(C)C)cc3)cn2c1` [Example 80, 4-tert-butyl-N-[6-(dimethylaminomethyl)imidazo[1,2-a]pyridin-2-yl]benzamide], the figure is 236 to 237 °C; as for `CN(C)c1ccc(C(=O)Nc2cn3cc(-n4ccnc4)ccc3n2)cc1` [Example 85, 4-dimethylamino-N-[6-(1H-imidazol-1-yl)imidazo[1,2-a]pyridin-2-yl]benzamide], 247 to 248 °C.
In turn, `CC(C)(C)c1ccc(C(=O)Nc2cn3cc(-n4ccnc4)ccc3n2)cn1` [Example 86, 6-tert-butyl-N-[6-(1H-imidazol-1-yl)imidazo[1,2-a]pyridin-2-yl]nicotinamide] had a melting point of 242 to 245 °C.
The value for `O=C(Nc1cn2cc(-n3ccnc3)ccc2n1)c1ccc(-c2ncc[nH]2)cc1` [Example 88, 4-(1H-imidazol-2-yl)-N-[6-(1H-imidazol-1-yl)imidazo[1,2-a]pyridin-2-yl]benzamide] was 276 to 279 °C (dec.); that for `O=C(Nc1cn2cc(-n3ccnc3)ccc2n1)c1ccc(-c2ccoc2)cc1` [Example 89, 4-(3-furyl)-N-[6-(1H-imidazol-1-yl)imidazo[1,2-a]pyridin-2-yl]benzamide] was 261 to 263 °C; that for `CC(C)(CO)c1ccc(C(=O)Nc2cn3cc(Cl)ccc3n2)cc1` [Example 90, N-[6-chloroimidazo[1,2-a]pyridin-2-yl]-4-(2-hydroxy-1,1-dimethylethyl)benzamide] was 240 to 242 °C.
As for `CC(C)(N)c1ccc(C(=O)Nc2cn3cc(Cl)ccc3n2)cc1` [Example 92, 4-(1-amino-1-methylethyl)-N-(6-chloroimidazo[1,2-a]pyridin-2-yl)benzamide], the figure is 235 to 237 °C; as for `CC(C)(CN)c1ccc(C(=O)Nc2cn3cc(Cl)ccc3n2)cc1` [Example 94, 4-(2-amino-1,1-dimethylethyl)-N-(6-chloroimidazo[1,2-a]pyridin-2-yl)benzamide], 245 to 247 °C; as for `O=C(Nc1cn2cc(Cl)ccc2n1)c1ccc(-n2cccn2)cc1` [Example 95, N-(6-chloroimidazo[1,2-a]pyridin-2-yl)-4-(1H-pyrazol-1-yl)benzamide], 287 to 289 °C.
The value for `CC(C)c1ccc(C(=O)Nc2cn3cc(-n4ccnc4)ccc3n2)cc1` [Example 97, N-[6-(1H-imidazol-1-yl)imidazo[1,2-a]pyridin-2-yl]-4-isopropylbenzamide] was 291 to 293 °C; that for `CC(C)(C)c1ccc(C(=O)Nc2cn3cc(-c4cnco4)ccc3n2)cn1` [Example 100, 6-tert-butyl-N-[6-(1,3-oxazol-5-yl)imidazo[1,2-a]pyridin-2-yl]nicotinamide] was 251 to 253 °C; that for `CC(C)(C)c1ccc(C(=O)Nc2cn3cc(-c4cccnc4)ccc3n2)cn1` [Example 102, 6-tert-butyl-N-(6-(pyridin-3-yl)imidazo[1,2-a]pyridin-2-yl)nicotinamide] was 272 to 274 °C.
`CC(C)(CO)c1ccc(C(=O)Nc2cn3cc(-n4ccnc4)ccc3n2)cc1` [Example 103, 4-(2-hydroxy-1,1-dimethylethyl)-N-[6-(1H-imidazol-1-yl)imidazo[1,2-a]pyridin-2-yl]benzamide]: the melting point lay in the range of 278 to 280 °C.
`Cn1cc(-c2ccc3nc(NC(=O)c4ccc(C(C)(C)C)nc4)cn3c2)cn1` [Example 105, 6-tert-butyl-N-[6-(1-methyl-1H-pyrazol-4-yl)imidazo[1,2-a]pyridin-2-yl]nicotinamide] gave a melting point of 228 to 230 °C.
As for `COc1ccc(-c2ccc3nc(NC(=O)c4ccc(C(C)(C)C)cc4)cn3c2)cn1` [Example 106, 4-tert-butyl-N-[6-(6-methoxypyridin-3-yl)imidazo[1,2-a]pyridin-2-yl]benzamide], the figure is 245 to 247 °C; as for `CC(C)(C)c1ccc(C(=O)Nc2cn3cc(-c4cccs4)ccc3n2)cc1` [Example 107, 4-tert-butyl-N-[6-(2-thienyl)imidazo[1,2-a]pyridin-2-yl]benzamide], 273 to 275 °C.
As for `CC(C)(C)c1ccc(C(=O)Nc2cn3cc(-c4ccsc4)ccc3n2)cc1` [Example 108, 4-tert-butyl-N-[6-(3-thienyl)imidazo[1,2-a]pyridin-2-yl]benzamide], the figure is 261 to 263 °C; as for `CS(=O)(=O)Nc1ccc(C(=O)Nc2cn3cc(Cl)ccc3n2)cc1` [Example 110, N-(6-chloroimidazo[1,2-a]pyridin-2-yl)-4-[(methylsulfonyl)amino]benzamide], 293 to 295 °C.
As for `CC(C)(C)c1ccc(C(=O)Nc2cn3cc(-c4cn[nH]c4)ccc3n2)cn1` [Example 114, 6-tert-butyl-N-[6-(1H-pyrazol-4-yl)imidazo[1,2-a]pyridin-2-yl]nicotinamide], the figure is 238 to 240 °C; as for `CC(C)(CC(=O)O)c1ccc(C(=O)Nc2cn3cc(Cl)ccc3n2)cc1` [Example 117, 3-(4-{[(6-chloroimidazo[1,2-a]pyridin-2-yl)amino]carbonyl}phenyl)-3-methylbutanoic acid], 304 to 306 °C (dec.).
